Each structure is given as a SMILES string. Activity calls are given as the source filed them.

Our source for the AC50, IC50 and EC50 values is ChEMBL document CHEMBL1201862, “PubChem BioAssay data set” (2004).

In one assay the target is Cytochrome P450 2C19 (Homo sapiens, UniProt P33261). The experiment in a line: Cytochrome panel assay with activity outcomes. Panel member name: p450-cyp2c19 Compounds with AC50 equal or less than 10 uM are considered active. In kind it is functional. Conditions: read-out: AC50.
The next assay deals with Cytochrome P450 3A4 (Homo sapiens, UniProt P08684).
Another assay concerns the target Cytochrome P450 2C9 (Homo sapiens, UniProt P11712).
In assay [1] the target is T1, Corticotropin-releasing factor receptor 2/Corticotropin-releasing factor-binding protein (Homo sapiens, UniProt P24387+Q13324).
T1 sequence (Q13324 whole entry): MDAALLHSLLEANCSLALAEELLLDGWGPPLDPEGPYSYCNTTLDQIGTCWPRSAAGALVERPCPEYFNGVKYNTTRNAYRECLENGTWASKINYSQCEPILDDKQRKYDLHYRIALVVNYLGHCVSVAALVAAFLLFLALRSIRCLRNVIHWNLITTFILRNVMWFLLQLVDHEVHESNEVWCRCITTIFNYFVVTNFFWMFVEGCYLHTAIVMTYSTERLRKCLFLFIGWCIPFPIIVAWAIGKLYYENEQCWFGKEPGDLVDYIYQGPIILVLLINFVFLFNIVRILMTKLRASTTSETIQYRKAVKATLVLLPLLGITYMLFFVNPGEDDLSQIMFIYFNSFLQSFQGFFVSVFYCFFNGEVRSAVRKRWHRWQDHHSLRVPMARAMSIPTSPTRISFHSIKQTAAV
T1 sequence (P24387 whole entry): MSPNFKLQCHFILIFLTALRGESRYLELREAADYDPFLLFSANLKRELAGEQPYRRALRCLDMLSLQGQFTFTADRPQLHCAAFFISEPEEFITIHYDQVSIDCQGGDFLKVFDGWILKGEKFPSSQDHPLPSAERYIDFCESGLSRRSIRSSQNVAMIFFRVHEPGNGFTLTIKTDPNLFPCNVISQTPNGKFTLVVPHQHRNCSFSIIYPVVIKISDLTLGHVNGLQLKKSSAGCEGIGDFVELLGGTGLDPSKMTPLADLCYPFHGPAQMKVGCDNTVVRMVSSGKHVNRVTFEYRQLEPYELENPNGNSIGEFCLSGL
The experiment in a line: Dose Response confirmation of uHTS hits for small molecule antagonists of the CRF-binding protein and CRF-R2 receptor complex. Conditions: read-out: IC50_Mean. In kind it is functional.

Assay [2] addresses T1, Corticotropin-releasing factor receptor 2/Corticotropin-releasing factor-binding protein. The experiment in a line: activators of CRF receptor 2 with binding protein – uHTS hits, confirmation (AID 602473). In kind it is functional. The note with it: read-out: EC50_Mean.
The target of a further assay is T2, Cytochrome P450 1A2 (Homo sapiens, UniProt P05177).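 Also: PubChem cytochrome P450 panel assay, CYP1A2 panel member.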
T2 sequence (P05177 whole entry): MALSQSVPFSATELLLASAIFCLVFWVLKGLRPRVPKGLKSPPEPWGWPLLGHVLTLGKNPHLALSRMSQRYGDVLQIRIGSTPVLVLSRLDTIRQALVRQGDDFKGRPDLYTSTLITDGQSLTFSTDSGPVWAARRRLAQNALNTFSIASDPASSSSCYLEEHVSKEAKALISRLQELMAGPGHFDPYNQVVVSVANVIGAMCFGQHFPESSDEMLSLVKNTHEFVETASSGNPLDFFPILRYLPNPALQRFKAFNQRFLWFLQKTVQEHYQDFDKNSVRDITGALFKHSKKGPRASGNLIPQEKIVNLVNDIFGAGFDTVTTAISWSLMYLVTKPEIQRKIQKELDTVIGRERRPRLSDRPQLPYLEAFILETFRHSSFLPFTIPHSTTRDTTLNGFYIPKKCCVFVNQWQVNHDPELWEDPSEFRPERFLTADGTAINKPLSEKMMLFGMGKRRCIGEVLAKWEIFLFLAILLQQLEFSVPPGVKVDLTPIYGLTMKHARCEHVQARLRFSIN

Assay [3] is described as follows: Luminescence Cell-Based Dose Response HTS to Identify Activators of Luciferase Translation or Activity in H4 […] Cells. [Related pubchem assays: 1829 (Project Summary), 1814 (Primary HTS)]. In kind it is functional.
In a further assay the test system is INS1. The assay can be described thus: beta cell apoptosis inhibitors, cytokine rescue, dose response, luminescence, retest (AID 449756).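 Also: cell death triggered by IL-1 beta plus TNF-alpha plus IFN-gamma mixture; protective hits raise ATP signal compared with cytokine alone wells.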 In kind it is functional, cell-based. The note with it: Rattus norvegicus.
A short description of assay [4]: inhibitors of firefly luciferase expression or activity, dose response, H4 neuroglioma cells, luminescence (AID 1990). In kind it is functional, cell-based.
Assay [5] is described as follows: Luminescence Cell-Based Dose Response HTS to Identify Inhibitors of 5'UTR Stem-Loop Driven Prion Protein mRNA Translation in H4 Neuroglioblastoma Cells. [Related pubchem assays: 1827 (Project Summary), 1813 (Primary HTS)]. In kind it is functional.
Assay [6] can be described thus: inhibitors of SNCA 5'UTR-driven reporter translation, confirmation, H4 neuroglioma cells, luminescence (AID 1988). In kind it is functional, cell-based.
For assay [7], the system named is Streptococcus sp. 'group A'. The experiment in a line: growth inhibition of control SK(-) GAS strain, dose response, counter-screen for streptokinase expression inhibitor project, luminescence, kanamycin, BacTiterGlo, confirmation (AID 1900). In kind it is functional, organism-based.
The test system of the next assay is Streptococcus. The experiment in a line: Group A Streptococcus viability loss, dose response, counter-screen for streptokinase expression inhibitor project, luminescence, BacTiterGlo (AID 1915).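 Also: potency for reduction of bacterial viability or growth.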 In kind it is functional, organism-based.
Assay [8] in a line: inhibitors of intracellular T. cruzi replication, confirmation, NIH3T3 host cells, beta-gal luminescence (AID 2044).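 Also: intracellular parasites grown in NIH/3T3 mouse fibroblasts as host cells; luminescent beta-galactosidase reporter signal from transgenic T. cruzi replicating inside host cells; inhibitors lower the luminescence signal.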 In kind it is functional, cell-based.
Assay [9] in a line: cytotoxicity toward NIH3T3 fibroblasts, dose response, counter-screen, cell-based, ATP luminescence, mouse fibroblasts (AID 2010).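 Also: cells exposed to compound for about 90 hours before reading.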 In kind it is functional.

Chain of Cytochrome P450 2C9 (P11712 whole entry): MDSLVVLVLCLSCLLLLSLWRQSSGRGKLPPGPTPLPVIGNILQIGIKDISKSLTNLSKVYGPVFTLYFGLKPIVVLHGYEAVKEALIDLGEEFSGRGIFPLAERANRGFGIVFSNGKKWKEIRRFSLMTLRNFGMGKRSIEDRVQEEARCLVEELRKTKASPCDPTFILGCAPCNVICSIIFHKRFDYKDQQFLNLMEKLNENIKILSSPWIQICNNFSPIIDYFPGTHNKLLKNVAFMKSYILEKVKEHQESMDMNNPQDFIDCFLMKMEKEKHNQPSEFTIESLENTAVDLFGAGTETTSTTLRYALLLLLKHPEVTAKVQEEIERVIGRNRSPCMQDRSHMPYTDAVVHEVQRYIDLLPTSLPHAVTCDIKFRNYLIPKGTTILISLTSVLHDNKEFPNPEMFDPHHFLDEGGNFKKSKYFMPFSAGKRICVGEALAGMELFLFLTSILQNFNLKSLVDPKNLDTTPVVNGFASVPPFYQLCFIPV
Chain of Cytochrome P450 2C19 (P33261 whole entry): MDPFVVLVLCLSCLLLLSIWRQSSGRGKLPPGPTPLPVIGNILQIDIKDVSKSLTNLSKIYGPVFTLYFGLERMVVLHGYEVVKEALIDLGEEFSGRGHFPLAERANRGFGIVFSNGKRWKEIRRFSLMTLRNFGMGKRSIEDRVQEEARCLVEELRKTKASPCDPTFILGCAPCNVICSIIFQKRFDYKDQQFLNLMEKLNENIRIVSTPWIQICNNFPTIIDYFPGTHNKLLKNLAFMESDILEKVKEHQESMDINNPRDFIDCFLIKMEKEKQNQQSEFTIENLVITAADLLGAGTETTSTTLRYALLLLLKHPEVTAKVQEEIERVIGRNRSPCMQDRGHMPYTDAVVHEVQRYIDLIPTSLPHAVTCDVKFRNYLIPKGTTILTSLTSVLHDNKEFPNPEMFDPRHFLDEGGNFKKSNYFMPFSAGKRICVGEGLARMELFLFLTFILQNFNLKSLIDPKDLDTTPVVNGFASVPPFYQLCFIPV
Chain of Cytochrome P450 3A4 (P08684 whole entry): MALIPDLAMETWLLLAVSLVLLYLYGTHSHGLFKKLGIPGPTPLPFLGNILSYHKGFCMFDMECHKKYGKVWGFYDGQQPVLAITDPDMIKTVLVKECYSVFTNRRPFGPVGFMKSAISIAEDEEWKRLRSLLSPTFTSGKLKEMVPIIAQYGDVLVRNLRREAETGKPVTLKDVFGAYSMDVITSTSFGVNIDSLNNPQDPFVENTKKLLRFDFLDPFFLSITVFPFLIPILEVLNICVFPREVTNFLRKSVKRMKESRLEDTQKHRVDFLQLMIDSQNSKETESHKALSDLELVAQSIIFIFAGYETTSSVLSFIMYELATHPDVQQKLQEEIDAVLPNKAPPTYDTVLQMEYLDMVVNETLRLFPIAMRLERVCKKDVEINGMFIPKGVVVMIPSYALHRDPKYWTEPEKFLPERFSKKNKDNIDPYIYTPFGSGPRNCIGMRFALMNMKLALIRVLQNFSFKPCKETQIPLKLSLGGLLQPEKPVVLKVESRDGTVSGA

Take `CCCn1nc(NC(=O)CC(C)C)c2cc3ccccc3nc21`: the figures for the AC50 on Cytochrome P450 2C19 and at Cytochrome P450 3A4 were 7.94 µM (inconclusive) and 3.16 µM (inconclusive), respectively.
Regarding `N=c1sc2ccccc2n1CC[S-].c1ccc2c(c1)sc1[n+]2CCS1`, the figures for the concentration at half-maximal activity (AC50) at Cytochrome P450 3A4 and on Cytochrome P450 2C9 were 3.16 µM (inconclusive) and 1.58 µM (inconclusive), respectively.
`COc1ccc(NC(=O)Nc2ccc3c(c2)OCO3)c(C)c1`: the IC50 in assay [1] was > 47.1 µM (inactive). In addition, in [2], the EC50 is > 53 µM (inactive).
For `COc1ccc(N2CCN(C(=O)CSc3nnc4c5cc(C)ccc5n(C)c4n3)CC2)cc1`, the concentration at half-maximal activity (AC50) – broadly, the midpoint of the concentration-response curve, whichever way the signal moves – was 5.62 µM (inconclusive) at Cytochrome P450 1A2, 1.12 µM (inconclusive) on Cytochrome P450 3A4 and 2.51 µM (inconclusive) at Cytochrome P450 2C9.
With `COc1ccccc1CC(=O)O/N=C(\N)c1cccc([N+](=O)[O-])c1`, the half-maximal activity concentration (AC50) is 20 µM (inconclusive) on Cytochrome P450 2C19, 25.1 µM (inconclusive) on Cytochrome P450 1A2, 31.6 µM (inconclusive) on Cytochrome P450 3A4 and 22.4 µM (inconclusive) on Cytochrome P450 2C9.
With `O=C(CCCN1CCC2(CC1)C(=O)N(Cc1cccc(F)c1)CN2c1ccccc1)c1ccc(F)cc1`, the figures for the AC50 at Cytochrome P450 2C19, at Cytochrome P450 1A2 and at Cytochrome P450 3A4 were 7.94 µM (inconclusive), 39.8 µM (inconclusive) and 31.6 µM (inconclusive), respectively.
With `Cc1nnc(NC(=O)C2CCCN(c3ncccn3)C2)s1` (configuration not stated), the IC50 in assay [1] was > 47.1 µM (inactive). Besides, the EC50 in assay [2] is > 53 µM (inactive).
With `Cc1c2cnn(CC(=O)NC3CCCC3)c(=O)c2c(C)n1Cc1ccccc1`, the EC50 was 51.2 µM (active) in assay [3] and > 53 µM (inactive) in assay [2]. In [1], the IC50 was > 47.1 µM (inactive).
As to `N=c1c2c(ncn1CCCO)Oc1ccc3ccccc3c1C2c1ccccc1` (configuration not stated), in the assay with INS1, the half-maximal activity concentration (AC50) was 24.4 µM (active).
Turning to `Cc1ccc(OCCOC(=O)Cn2nc(C)c([N+](=O)[O-])c2C)cc1`, the IC50 in assay [1] was > 47.1 µM (inactive). In addition, the EC50 in assay [2] was > 53 µM (inactive).
Regarding `COCCn1c(=O)c(-c2ccc(Cl)cc2)nc2cnc(Oc3ccccc3)nc21`, the half-maximal activity concentration (AC50) was 39.8 µM (inconclusive) on Cytochrome P450 2C19 and 25.1 µM (inconclusive) at Cytochrome P450 3A4.
As to `CN(CC1CCCO1)S(=O)(=O)c1ccc(C(=O)Nc2nc(-c3ccccn3)cs2)cc1` (configuration not stated), the concentration at half-maximal activity (AC50) in the assay on INS1 is 2.42 µM (active).
For `Cc1nnc(NC(=O)c2oc3c(ccc4ccccc43)c2C)s1`, the AC50 on Cytochrome P450 3A4 was 12.6 µM (inconclusive); at Cytochrome P450 2C9, 17.8 µM (inconclusive).
As to `Cc1cc(C)nc(OC(=O)c2ccc(Cl)cc2Cl)n1`, the EC50 was 11.4 µM (active) in assay [4], > 120 µM (not active) in [5] and 10.9 µM (active) in assay [6]. Further, the half-maximal activity concentration (AC50) in the assay on INS1 was 84.3 µM (active).
For the molecule `N#C/C(=C(/O)Cc1cccc2ccccc12)c1nc2ccccc2s1`, the EC50 was 2.91 µM (active) in assay [7], 3.17 µM (active) in the assay with Streptococcus and 3.14 µM (active) in assay [2]. Moreover, the IC50 in assay [1] was 2.49 µM (active).
`CSc1ccc(CNc2ccccc2)cc1`: the AC50 on Cytochrome P450 3A4 was 35.5 µM (inconclusive).
On to `O=C(NC(=S)NCCc1ccccn1)c1ccco1`, for which the IC50 in assay [1] is > 47.1 µM (inactive). For the same molecule, the EC50 in assay [2] is > 53 µM (inactive).
For `Cc1cc(O)c(C2(O)C(=O)Nc3cc(Br)ccc32)cc1C` (configuration not stated), the IC50 in assay [1] is > 47.1 µM (inactive). The EC50 in [2] is > 53 µM (inactive).
For the molecule `O=C([O-])c1cc(-c2ccccc2)cc(-c2ccccc2)[n+]1Cc1ccccc1`, in the assay on INS1, the concentration at half-maximal activity (AC50) is 1.96 µM (active).
`Cc1[nH]c2c(ccc3ccccc32)c1C1C(CCN)C1(C)C` (configuration not stated): the EC50 in assay [8] is 2.56 µM (active); in assay [9] it was 13.2 µM (active). The AC50 with INS1 was 15.1 µM (active).
On to `Cc1cccc(C)c1OCC(=O)Nc1oc(-c2ccccc2)c(-c2ccccc2)c1C#N`, for which, in assay [1], the IC50 is > 47.1 µM (inactive). Moreover, in [2], the EC50 is > 53 µM (inactive).
On to `COc1ccc(-n2ncc(C(C)NS(=O)(=O)c3cc(C)sc3C)c2C)cc1` (configuration not stated), for which, in [1], the IC50 is > 47.1 µM (inactive). The EC50 in assay [2] was > 53 µM (inactive).
For `Cn1c(C(=O)NCCc2ccccc2)cc(=O)n(C)c1=O`, the IC50 in [1] is > 47.1 µM (inactive). Moreover, the EC50 in assay [2] is > 53 µM (inactive).
Take `Cc1ccc(N2C(=O)c3sc4nnc(C)c(=O)n4c3C2=O)cc1`: in assay [1], the IC50 was > 47.1 µM (inactive). Also, the EC50 in assay [2] is > 53 µM (inactive).
Consider `CCCCCCCC/C=C\CCCCCCCC(N)=O` [OLEAMIDE], for which the AC50 on Cytochrome P450 2C19 was 31.6 µM (inconclusive); on Cytochrome P450 3A4 it was 50.1 µM (inconclusive).
Take `COc1ccc2c(OC)c3ccoc3nc2c1OC` [SKIMMIANINE]: on Cytochrome P450 3A4, the half-maximal activity concentration (AC50) was 7.94 µM (inconclusive).
